The text below walks through data of patent US11787817B2, “Albofungin and its derivatives specifically recognize HIV-1 LTR-III G-quadruplex” (The Hong Kong University of Science and Technology, priority 2021, dated 2023).

Entries after “also recorded” stand apart in the source; their conditions may differ.

The test system of one series is HIV-1 LTR III G4. Kind of series: 1D 1H-NMR titration of HIV-1 LTR III G4 with compounds. The settings on record: for binding affinity to LTR III G4 compared with albofungin / interaction / binding with LTR III G4: NMR titration; for interaction / binding with LTR III G4: result in words. It is filed as binding. How it is done:
(§1) The single DNA nucleotides were purchased from Integrated DNA Technologies (IDT). The DNA sample at 100 μM (single strands) was then re-annealed by heating to 95° C. for 15 min, followed by slow cooling to room temperature overnight in an annealing buffer of 70 mM KCl and 20 mM potassium phosphate (pH 7.0). The final NMR samples contained 0.1 mM […] in 20 mM potassium phosphate buffer (pH 7.0) and 70 mM KCl.
(§2) To verify whether or not the compounds interact with G4 DNA, we performed NMR titration experiments by running one-dimensional (1D) ^1H NMR spectra at 25° C. All compounds were dissolved in isotope-labeled d6-DMSO (from Sigma-Aldrich) at about 50 mM concentration, working as stock solutions. To avoid chemical shift changes of G4 DNA resulted from d6-DMSO addition, 10 μL d6-DMSO was added into 500 μL of 0.1 mM G4 DNA solution in the NMR buffer (20 mM potassium phosphate buffer and 70 mM KCl, pH 7.0, 10% D2O) and then a 1D ^1H-NMR spectrum was recorded as a reference. During NMR titration experiments, each compound was added into G4 DNA solution, the maximal volume of 10 μL of each compound in d6-DMSO solution was thought as a final data point.

In a further series the test system is HIV-1 U3 RNA G4. Kind of series: 1D 1H-NMR titration of HIV-1 U3 RNA G4. Format: binding. The settings on record: ratio 1:0.5, 1:1, 1:3 and 1:5. The protocol:
as §1
as §2, with “point. […]” for “point.”

Series [1] can be described thus: Solubility in the solvent system of the NMR titration. Format: physicochemical. The following applies: in solution / solvent system at the test concentration. How it is done:
as §2

For the next series, the system named is LTR-III G4. Kind of series: CD spectroscopy of LTR-III G4 with compound. More on the design: species or system HIV-1. The following applies: increasing compound concentration ratio, 25° C., 220-320 nm. How it is done:
Circular dichroism (CD) spectra were recorded on Chirascan CD spectrometer at 25° C. from 220 nm to 320 nm under liquid mode; a 1 mm path-length quartz cuvette was used in the test.
Except for NMR titration and X-ray diffraction; Circular Dichroic (CD) spectroscopy is another frequently used method for G4 studies because it is very sensitive to observing slight changes in DNA conformation. (28) Due to its sensitivity, easy manipulation of studied samples, and relatively cheap, CD spectroscopy is regarded as a crucial complementary method in G4 studies; meanwhile, LTR-III G4's structure has only been resolved using NMR elucidation in K^+ solution, a typical hybrid conformation; and different G4 conformation has distinct CD spectra. So CD test was conducted to see if 477-albo will change the conformation of LTR-III G4.

In series [2] the test system is LTR III G4 / hnRNP A2 interaction. Kind of series: 1D 1H-NMR titration of LTR III G4/albofungin complex with RRM1,2 domain of hnRNP A2. It is filed as binding. The settings on record: G4:albofungin 1:3; G4:albofungin:hnRNP A2 1:3:2. The protocol: as §2
Chain of RRM1,2 domain of hnRNP A2 (P22626 21-191): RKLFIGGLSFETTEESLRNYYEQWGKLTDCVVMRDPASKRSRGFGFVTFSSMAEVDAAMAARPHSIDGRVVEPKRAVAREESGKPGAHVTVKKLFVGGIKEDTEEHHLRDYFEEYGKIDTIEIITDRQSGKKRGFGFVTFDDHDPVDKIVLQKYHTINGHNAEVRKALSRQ
LTR G4 region is under control of two nuclear proteins: nucleolin, which upon binding increases LTR G4 stability and thus silences transcription (26); the human ribonucleoprotein (hnRNP) A2/B1, which can unfold the LTR G4 efficiently and thus enhances HIV-1 transcription (27). To sum up, G4 binding proteins perform like a switch in the determination of G4's conformation to control viral transcription modulation. Therefore, the RRM domain of human ribonucleoprotein (hnRNP A2) was expressed and purified, and the NMR titration of LTR III G4 with the RRM domain of hnRNP A2 was performed. […]

The test system of series [3] is RRM1,2 domain of hnRNP A2. Kind of series: 1H-15N HSQC titration of RRM1,2 domain of hnRNP A2 with compound. Format: binding, human. The settings on record: titrated at 1:10. How it is done:
The coding sequence of the RRM domain of hnRNP A2 was inserted into the expression vector pET-28a(+) (Novagen). The protein was expressed in Escherichia coli BL21(DE3) at 37° C. for 5 h. Cell lysates were subject to affinity purification with the nickel-nitrilotriacetic acid resin (Qiagen) followed by the cleavage of the hexahistidine tag with the P3C enzyme. The resulting protein was further purified on a Superdex 75 column (GE Healthcare). For the NMR studies, the samples uniformly labeled with ^15N isotopes were expressed and purified as described above, except that the cells were grown in an M9 medium containing [^15N] ammonium chloride (Cambridge Isotopes) and D-glucose.
The titration experiments were performed by recording a series of 2D ^15N-HSQC spectra on uniformly ^15N-labeled RRM domain (˜0.1 mM) in the presence of different amounts of DNA ranging from 0 to 0.5 mM at 25° C. The protein sample and the stock solutions of DNA were all prepared in 20 mM potassium phosphate buffer and 70 mM KCl, pH 7.0, 10% D2O.
All compounds were dissolved in isotope-labeled d6-DMSO (from Sigma-Aldrich) at about 50 mM concentration, working as stock solutions. […]

The test system of series [4] is human telomeric variant htel21_T18 G4. Kind of series: 1D 1H-NMR titration of human telomeric htel21_T18 G-quadruplex. Format: binding. The following applies: concentration ratio 1:5. How it is done: as §1, §2
The LTR sequence and other G-rich DNA or RNA strands can form polymorphic G4s. For example, a chair-type conformation is adopted by a human telomeric variant, htel21_T18 (d[(GGGTTA)2GGGTTTGGG]) (SEQ ID NO: 1) (25). […]

Another series relates to HIV-1 LTR IV G4. Kind of series: 1D 1H-NMR titration of HIV-1 LTR IV G4. The settings on record: ratio 1:0, 1:3 and 1:6; even at 1:6. It is filed as binding. The protocol: as §1, §2
(§3) Since not only LTR III can form noncanonical G4, LTR II and LTR IV can also form mutually exclusive G4 structures (24). […]

The next series has as its system HIV-1 LTR II G4. Briefly: 1D 1H-NMR titration of HIV-1 LTR II G4. It is filed as binding. The following applies: ratio 1:0, 1:3 and 1:6; even at 1:6. How it is done: as §1, §2, §3
Another series concerns human telomeric G4s. The following applies: literature (32); cited from earlier work.
For series [5], the system named is DNA and RNA G4s of LTR-III. The settings on record: literature; cited from earlier work.
The subject of a further series is Epstein-Barr viruses. The settings on record: literature (15); cited from earlier work.

On to `COc1c2c(c(O)c3c(=O)c4c(oc13)[C@H](O)CC[C@@H]4O)-c1c(cc3cc(C)[nH]c(=O)c3c1O)CC2` [477-albo], for which, in the series on HIV-1 LTR III G4, the “binding affinity to LTR III G4 compared with albofungin” value is reported as “much weaker than albofungin” and the “interaction / binding with LTR III G4” value is recorded as “specific bind with LTR-III DNA G4; also recorded: bind to LTR III G4”. The “new imino shifts indicating conformation change of LTR III G4” value in the series with HIV-1 LTR III G4 (concentration ratio increased to 1:3, between 13 to 14 ppm and 9.5 to 10.5 ppm) is listed as “several strange shifts”. The “trend of chemical shift changes of LTR III G4 imino region on titration” value in the series with HIV-1 LTR III G4 (ratio 1:0 to 1:8) is on record as “clear trend of chemical shifts changes”. The “binding to U3 RNA G4 (imino region of 1D 1H-NMR spectra)” value in the series on HIV-1 U3 RNA G4 is on record as “not U3 RNA G4; also recorded: did not change”. Further, in [1], the solubility entry is listed as “better solubility”. Besides, in the series on LTR-III G4, the “conformation change of LTR-III G4 in CD spectra” value is “noticeable conformation changes from a typical hybrid form into parallel form”.

On to `Cc1cc2cc3c(c(O)c2c(=O)n1N)-c1c2c(c4oc5c(c(=O)c4c1O)[C@@H](O)[C@@H](O)CC5)OCO[C@@H]2C3` [506-1-albo], for which, in the series on HIV-1 LTR III G4, the “binding affinity to LTR III G4 compared with albofungin” value was “much weaker than albofungin” and the “interaction / binding with LTR III G4” value is listed as “bind to LTR III G4”.

Take albofungin: the “chemical shift changes in the imino region of the 1D 1H-NMR spectrum of LTR III G4” value in the series with HIV-1 LTR III G4 (G4:compound concentration ratio 1:0.5, 25° C.) is recorded as “significant chemical shift changes”. For the same molecule, in the series on HIV-1 LTR III G4, the “interaction / binding with LTR III G4” value is recorded as “potent interaction”. Also, the solubility entry in series [1] is given as “poor solubility”. The “changes in imino region of LTR III G4/albofungin complex on adding RRM1,2 domain of hnRNP A2” value in series [2] is reported as “no changes in the profile of the imino region”. For the same molecule, the “binding to the RRM domain of hnRNP A2” value in [3] is reported as “did not bind”. In [4], the “chemical shift changes of htel21_T18 1D 1H NMR spectra” value is “no chemical shift changes”. Besides, the “chemical shift changes of LTR IV G4 1D 1H NMR spectra” value in the series with HIV-1 LTR IV G4 is given as “no significant chemical shift changes”. The “chemical shift changes of LTR II G4 1D 1H NMR spectra” value in the series on HIV-1 LTR II G4 is reported as “no significant chemical shift changes”.

`CN(C)c1ccc(Nc2c3ccc(NC(=O)CCN4CCCC4)cc3nc3cc(NC(=O)CCN4CCCC4)ccc23)cc1` [BRACO-19]: the “activity against human telomeric G4s” value with human telomeric G4s is on record as “active against”. Further, the “binding to DNA and RNA G4s of LTR-III” value in series [5] is “binds both DNA and RNA G4s of LTR-III”. Further, the “activity against Epstein-Barr viruses” value in the series with Epstein-Barr viruses is “active against”.

For `CO[C@@H]1CC[C@H](O)c2c1oc1c3c4c(c(O)c1c2=O)-c1c(cc2cc(C)n(NC(C)=O)c(=O)c2c1O)C[C@H]4OCO3` [562-albo], in the series with HIV-1 LTR III G4, the “binding affinity to LTR III G4 compared with albofungin” value is “much weaker than albofungin” and the “interaction / binding with LTR III G4” value is listed as “bind to LTR III G4”.

Consider `Cc1cc2cc3c(c(O)c2c(=O)n1N)-c1c2c(c4oc5c(c(=O)c4c1O)[C@@H](O)CC[C@H]5O)OCO[C@@H]2C3` [506-2-albo], for which, in the series on HIV-1 LTR III G4, the “binding affinity to LTR III G4 compared with albofungin” value is reported as “much weaker than albofungin” and the “interaction / binding with LTR III G4” value is “bind to LTR III G4”.

As to `CO[C@@H]1CC[C@H](O)c2c1oc1c3c4c(c(O)c1c2=O)-c1c(cc2cc(C)[nH]c(=O)c2c1O)C[C@H]4OCO3` [505-albo], in the series on HIV-1 LTR III G4, the “binding affinity to LTR III G4 compared with albofungin” value is reported as “much weaker than albofungin” and the “interaction / binding with LTR III G4” value is listed as “bind to LTR III G4”.

With `COc1c2c(c(O)c3c(=O)c4c(oc13)[C@H](O)CC[C@@H]4O)-c1c(cc3cc(C)n(N)c(=O)c3c1O)CC2` [492-albo], in the series with HIV-1 LTR III G4, the “binding affinity to LTR III G4 compared with albofungin” value was “much weaker than albofungin” and the “interaction / binding with LTR III G4” value was “bind to LTR III G4”.

Turning to `CO[C@@H]1CC[C@H](O)c2c1oc1c3c4c(c(O)c1c2=O)-c1c(cc2cc(C)n(C)c(=O)c2c1O)C[C@H]4OCO3` [519-albo], in the series with HIV-1 LTR III G4, the “binding affinity to LTR III G4 compared with albofungin” value is “much weaker than albofungin” and the “interaction / binding with LTR III G4” value is recorded as “bind to LTR III G4”.

Regarding `CO[C@@H]1CC[C@H](O)c2c1oc1c3c4c(c(O)c1c2=O)-c1c(cc2c(Cl)c(C)n(N)c(=O)c2c1O)C[C@H]4OCO3` [chloroalbofungin], the “interaction / binding with LTR III G4” value in the series on HIV-1 LTR III G4 is listed as “poor binding affinity”.
